Assay results reported in US8580752B2, “Aromatic amides as potentiators of bioefficacy of anti-infective drugs” (priority 2005, dated 2013).
Values after ≈ are worked out from the molar mass of the structure shown. Like-named read-outs stand apart in the source and are kept apart here.

Key:
[1] = test system: Gm +ve bacteria; experiment: microbe, parasite or virus in culture; format: cell-based, Gram positive; details: for MIC: drug alone, Gm +ve bacteria
[2] = test system: Gm −ve bacteria; experiment: microbe, parasite or virus in culture; format: cell-based, Gram negative
[3] = test system: M. tb; experiment: MIC of anti infective drugs alone and with potentiators; format: cell-based, Mycobacterium tuberculosis; details: for MIC Drug + potentiator: Ciprofloxacin + potentiator; for % decrease in MIC: Ciprofloxacin + potentiator vs drug alone
[4] = test system: M. tuberculosis H37Rv; experiment: MIC by checkerboard method; format: cell-based, Mycobacterium tuberculosis; details: for MIC: Mycobacterium tuberculosis, Rifampicin alone
[5] = test system: M. tuberculosis 611; experiment: MIC by checkerboard method; format: cell-based, Mycobacterium tuberculosis
Method: (§1) This checkerboard technique can be performed with liquid or semisolid (agar) media.
(§2) In this method the agar (Mueller Hinton agar, Middlebrook 7H10 agar) was autoclaved and allowed to cool to 55° C. to 50° C. The combination of the standard drug and the potentiator was added to the agar. Serial two fold dilutions of each of standard drug and the potentiator were prepared in appropriate solvents. In order to maintain the desired concentrations of both agar and drugs, and to rule out the effect of solvent, the volume of solvent (containing standard drug or potentiator) added to agar was kept small (i.e ≦5% of the total volume). After the agar plates have been poured and allowed to dry, the bacteria to be tested were applied to the surface of agar with a replicating device designed to deliver a standard inoculum (approx 10^4 cfu|spot). The plates were incubated at 37° C. for 24 hrs (3 weeks in case of Mycobacterium tuberculosis)
(§3) The above-mentioned checkerboard was also performed with liquid media in a microtiter plate format. This method was used to study the combination of antibacterial/antifungal/antiviral drugs with potentiator.

[6] = test system: M. tuberculosis 615; experiment: MIC by checkerboard method; format: cell-based, Mycobacterium tuberculosis
Method: as §1, §2, §3

[7] = test system: M. avium ATCC 49601; experiment: MIC by checkerboard method; format: cell-based
[8] = test system: M. intracellure ATCC 13950; experiment: MIC by checkerboard method; format: cell-based
[9] = test system: S aureus ATCC 29213; experiment: MIC by checkerboard method; format: cell-based, Staphylococcus aureus; details: for MIC: Staphylococcus aureus, ATCC29213, Tables 5A/5B, read-out: MIC Mupirocin; for MIC Amikacin / MIC Ciprofloxacin: Tables 5A/5B
[10] = test system: MRSA; experiment: MIC by checkerboard method, comparison with piperine; format: cell-based, Staphylococcus aureus; details: Tables 5A/5B; for MIC: Staphylococcus aureus, read-out: MIC Mupirocin
[11] = Mycobacterium tuberculosis, Rifampicin alone
[12] = with compound of formula 1a 0.09 μg/ml
[13] = with compound of formula 1a 0.78 μg/ml
[14] = with compound of formula 1a 6.25 μg/ml
[15] = with compound of formula 1a 50.0 μg/ml
[16] = with the labelled potentiator +6.25 μg/ml
[17] = with the labelled potentiator +12.5 μg/ml
[18] = with the labelled potentiator +25.0 μg/ml
[19] = with the labelled potentiator +50.0 μg/ml

In the case of `CCn1cc(C(=O)O)c(=O)c2cc(F)c(N3CCNCC3)cc21` [Norfloxacin, reference compound], the MIC [1] was 0.12 to 32 µg/mL (≈ 0.376 to 100 µM) and the “MIC Drug alone” value ([2]; drug alone, Gm −ve bacteria) was 0.03 to 64 µg/mL.

`CCN(CC)C(=O)/C=C/C(C)=C/c1ccc2c(c1)OCO2` [Formula 1a, R = CH3, do, R5 = R6 = C2H5, 5-(3,4-methylenedioxyphenyl)-4-methyl-2E,4E-pentadienoic acid-N,N-diethylamide] was tested, and the “% decrease in MIC” value [1] was 50-76% and the “MIC Drug + potentiator” value [1] was 0.06 to 0.12 µg/mL.

With `CCC(/C=C/C(=O)N1CCCCC1)=C\c1ccc(OC)c(OC)c1` [4-ethyl-5-(3,4-dimethoxyphenyl)-2E,4E-pentadienoic acid piperidide] the “% decrease in MIC” value [1] was 50-76%, the “MIC Drug + potentiator” value [1] was 0.06 to 8 µg/mL and the “% decrease in MIC” value [2] was 0-50%. For the same compound, the “MIC Drug + potentiator” value [2] was 0.03 to 0.25 µg/mL, the “MIC Drug + potentiator” value [3] was 0.25 to 0.5 µg/mL and the “% decrease in MIC” value [3] was 50%.

`CCC(/C=C/C(=O)N1CCCCC1)=C\c1cc2c(c([N+](=O)[O-])c1)OCO2` [5-(3,4-methylenedioxy-5-nitrophenyl)-4-ethyl-2E,4E-pentadienoic acid piperidide] was tested, and the “% decrease in MIC” value [1] was 0-50% and the “MIC Drug + potentiator” value [1] was 0.03 to 0.25 µg/mL.

Compound `CO[C@H]1/C=C/O[C@@]2(C)Oc3c(C)c(O)c4c(O)c(c(/C=N/N5CCN(C)CC5)c(O)c4c3C2=O)NC(=O)/C(C)=C\C=C\[C@H](C)[C@H](O)[C@@H](C)[C@@H](O)[C@@H](C)[C@H](OC(C)=O)[C@@H]1C` [Rifampicin, reference compound] has an MIC ([4]; M. tuberculosis H37Rv, read-out: MIC of Rifampicin) of 0.12 µg/mL, an MIC ([4]; Tables 5A/5B, M tuberculosis H37Rv, read-out: MIC Rifampicin) of 0.12 µg/mL and an MIC [5, 11] of 0.06 µg/mL. For the same compound, the MIC [6, 11] was 0.06 µg/mL, the MIC ([7]; Mycobacterium avium, ATCC49601, Rifampicin alone) was 2 µg/mL and the MIC ([8]; Rifampicin alone) was 2 µg/mL.

For `CCCCC(/C=C/C(=O)N1CCCCC1)=C\c1ccc2c(c1)OCO2` [5-(3,4-methylenedioxyphenyl)-4-n-butyl-2E,4E-pentadienoic acid piperidide], the “% decrease in MIC” value [1] was 50-76%, the “MIC Drug + potentiator” value [1] was 0.06 to 8 µg/mL and the “% decrease in MIC” value [2] was 0-50%. For the same compound, the “MIC Drug + potentiator” value [2] was 0.03 to 0.25 µg/mL, the “MIC Drug + potentiator” value [3] was 0.25 to 0.5 µg/mL and the “% decrease in MIC” value [3] was 50%.

In the case of `CCC(/C=C/C(=O)N1CCCC1)=C\c1ccc2c(c1)OCO2` [5-(3,4-methylenedioxyphenyl)-4-ethyl-2E,4E-pentadienoic acid pyrrolidide], the “MIC of Rifampicin” value ([4]; with compound of formula 1a 0.09 μg/ml, M. tuberculosis H37Rv) was 0.03 µg/mL, the “MIC of Rifampicin” value ([4]; with compound of formula 1a 0.78 μg/ml, M. tuberculosis H37Rv) was 0.03 µg/mL and the “MIC of Rifampicin” value ([4]; with compound of formula 1a 6.25 μg/ml, M. tuberculosis H37Rv) was 0.03 µg/mL. For the same compound, the “MIC of Rifampicin” value ([4]; with compound of formula 1a 50.0 μg/ml, M. tuberculosis H37Rv) was 0.03 µg/mL, the “MIC of Rifampicin” value [5, 12] was 0.03 µg/mL and the “MIC of Rifampicin” value [5, 13] was 0.03 µg/mL. For the same compound, the “MIC of Rifampicin” value [5, 14] was 0.03 µg/mL, the “MIC of Rifampicin” value [5, 15] was 0.03 µg/mL and the “MIC of Rifampicin” value [6, 12] was 0.03 µg/mL. The “MIC of Rifampicin” value [6, 13] was 0.03 µg/mL, the “MIC of Rifampicin” value [6, 14] was 0.03 µg/mL and the “MIC of Rifampicin” value [6, 15] was 0.03 µg/mL. The “MIC of Rifampicin” value [7, 12] was 2.0 µg/mL, the “MIC of Rifampicin” value [7, 13] was 2.0 µg/mL and the “MIC of Rifampicin” value [7, 14] was 1.0 µg/mL. The “MIC of Rifampicin” value [7, 15] was 1.0 µg/mL, the “MIC of Rifampicin” value [8, 12] was 2.0 µg/mL and the “MIC of Rifampicin” value [8, 13] was 1.0 µg/mL. The “MIC of Rifampicin” value [8, 14] was 1.0 µg/mL and the “MIC of Rifampicin” value [8, 15] was 1.0 µg/mL.

Compound `CC1COc2c(N3CCN(C)CC3)c(F)cc3c(=O)c(C(=O)O)cn1c23` (centres unmarked) [Ofloxacin, reference compound] has an MIC [1] of 12 to 32 µg/mL (≈ 33.2 to 88.6 µM), an MIC ([2]; drug alone, Gm −ve bacteria, read-out: MIC Drug alone) of 0.06 to 32 µg/mL (≈ 0.166 to 88.6 µM) and an MIC ([3]; Mycobacterium tuberculosis, drug alone) of 0.5 to 2.5 µg/mL.

`CC(/C=C/C(=O)NC(C)c1ccc(Br)cc1)=C\c1ccc2c(c1)OCO2` (centres unmarked) [5-(3,4-methylenedioxyphenyl)-4-methyl-2E,4E-pentadienoic acid-1-(4-bromophenyl)ethylamide] was tested, and the “% decrease in MIC” value [1] was 50-76%, the “MIC Drug + potentiator” value [1] was 0.06 to 8 µg/mL and the “% decrease in MIC” value [2] was 0-50%. The “MIC Drug + potentiator” value [2] was 0.03 to 0.25 µg/mL, the “MIC Drug + potentiator” value [3] was 0.25 to 0.5 µg/mL and the “% decrease in MIC” value [3] was 50%.

For `CCC(/C=C/C(=O)N1CCC(O)CC1)=C\c1ccc2c(c1)OCO2` [5-(3,4-methylenedioxyphenyl)-4-ethyl-2E,4E-pentadienoic acid-4-hydroxypiperidide], the “% decrease in MIC” value [1] was 0-50% and the “MIC Drug + potentiator” value [1] was 0.03 to 0.25 µg/mL.

For `CCC(CCC(=O)N1CCCCC1)Cc1ccc2c(c1)OCO2` (centres unmarked) [5-(3,4-methylenedioxyphenyl)-4-ethyl-pentanoic acid piperidide], the “% decrease in MIC” value [1] was 0-50% and the “MIC Drug + potentiator” value [1] was 0.03 to 0.25 µg/mL.

`O=C(/C=C/C=C/c1ccc2c(c1)OCO2)N1CCCCC1` [Piperine, reference compound] was tested, and the MIC [9, 16] was 0.12 µg/mL, the MIC [9, 17] was 0.12 µg/mL and the MIC [9, 18] was 0.06 µg/mL. For the same compound, the MIC [9, 19] was 0.06 µg/mL, the “MIC Amikacin” value [9, 16] was 2.0 µg/mL and the “MIC Ciprofloxacin” value [9, 16] was 0.25 µg/mL. The “MIC Amikacin” value [9, 17] was 1.0 µg/mL, the “MIC Ciprofloxacin” value [9, 17] was 0.25 µg/mL and the “MIC Amikacin” value [9, 18] was 0.5 µg/mL. The “MIC Ciprofloxacin” value [9, 18] was 0.12 µg/mL, the “MIC Amikacin” value [9, 19] was 0.25 µg/mL and the “MIC Ciprofloxacin” value [9, 19] was 0.12 µg/mL. The “MIC Rifampicin” value ([4]; Tables 5A/5B, with the labelled potentiator +6.25 μg/ml, M tuberculosis H37Rv) was 0.12 µg/mL, the “MIC Rifampicin” value ([4]; Tables 5A/5B, with the labelled potentiator +12.5 μg/ml, M tuberculosis H37Rv) was 0.06 µg/mL and the “MIC Rifampicin” value ([4]; Tables 5A/5B, with the labelled potentiator +25.0 μg/ml, M tuberculosis H37Rv) was 0.06 µg/mL. It also gave an MIC [10, 16] of 0.12 µg/mL, an MIC [10, 17] of 0.12 µg/mL and an MIC [10, 18] of 0.06 µg/mL. For the same compound, the MIC [10, 19] was 0.06 µg/mL, the “MIC Amikacin” value [10, 16] was 4.0 µg/mL and the “MIC Ciprofloxacin” value [10, 16] was 32 µg/mL. For the same compound, the “MIC Amikacin” value [10, 17] was 4.0 µg/mL, the “MIC Ciprofloxacin” value [10, 17] was 32 µg/mL and the “MIC Amikacin” value [10, 18] was 4.0 µg/mL. For the same compound, the “MIC Ciprofloxacin” value [10, 18] was 32 µg/mL, the “MIC Amikacin” value [10, 19] was 4.0 µg/mL and the “MIC Ciprofloxacin” value [10, 19] was 16 µg/mL.

`CC(/C=C/C(=O)N1CCN(C)CC1)=C\c1ccc2c(c1)OCO2` [5-(3,4-methylenedioxyphenyl)-4-methyl-2E,4E-pentadienoic acid-N-methylpiperazide] was tested, and the “% decrease in MIC” value [1] was 50-76% and the “MIC Drug + potentiator” value [1] was 0.06 to 0.12 µg/mL.
